Results reported in patent US20090186766A1, “Heteroaroyl-Substituted Alanines with a Herbicidal Action” (BASF SE, priority 2006, published 2009).

Key:
Setaria viridis = assay: Greenhouse post-emergence herbicidal test; assay type: in vivo; details: application rate 1 kg/ha
Source text: (§1) The seeds of the test plants were sown separately for each species. For the post-emergence treatment, the test plants were first grown to a height of 3 to 15 cm, depending on the plant habit, and only then treated with the active compounds which had been suspended or emulsified in water. For this purpose, the test plants were either sown directly and grown in the same containers, or they were first grown separately as seedlings and transplanted into the test containers a few days prior to treatment. The rate of application for the post-emergence treatment was 1.0 kg/ha of a.s. (active substance). Depending on the species, the plants were kept at 10-25° C. or 20-35° C. The test period extended over 2 to 4 weeks. During this time, the plants were tended, and their response to the individual treatments was evaluated. Evaluation was carried out using a scale from 0 to 100. 100 means no emergence of the plants, or complete destruction of at least the aerial parts, and 0 means no damage, or normal course of growth. The plants used in the greenhouse experiments belonged to the following species: [table]

Amaranthus retroflexus = assay: Greenhouse post-emergence herbicidal test; assay type: in vivo
Source text: as §1, with “The rate of application for the post-emergence treatment was 1.0 kg/ha of a.s.” left out

Chenopodium album = assay: Greenhouse post-emergence herbicidal test; assay type: in vivo
Source text: as §1, with “The rate of application for the post-emergence treatment was 1.0 kg/ha of a.s.” left out

Galium aparine = assay: Greenhouse post-emergence herbicidal test; assay type: in vivo; details: application rate 0.25 kg/ha
Source text: as §1, with “The rate of application for the post-emergence treatment was 1.0 kg/ha of a.s.” left out

SMILES | melting point [°C] | post-emergence action against Setaria viridis (Setaria viridis) | post-emergence action against Amaranthus retroflexus (Amaranthus retroflexus; application rate 1 kg/ha) | post-emergence action against Chenopodium album (Chenopodium album; application rate 1 kg/ha) | post-emergence action against Galium aparine (Galium aparine) | post-emergence action against Amaranthus retroflexus (Amaranthus retroflexus; application rate 0.25 kg/ha) | post-emergence action against Chenopodium album (Chenopodium album; application rate 0.25 kg/ha)
CNC(=O)C(NC(=O)c1cn(C)nc1C(F)(F)F)C(CO)c1ccccc1 (racemic) [Compound 3.1, N-(3-hydroxy-1-methylcarbamoyl-2-phenyl-propyl)-1-methyl-3-trifluoromethyl-1H-pyrazole-4-carboxamide] | 194 | very good | very good | very good | – | – | –
CNC(=O)C(NC(=O)c1cn(C)nc1C(F)(F)F)C(CO)c1ccccc1 (racemic) [Compound 3.2, N-(3-hydroxy-1-methylcarbamoyl-2-phenyl-propyl)-1-methyl-3-trifluoromethyl-1H-pyrazole-4-carboxamide] | 202 | very good | very good | very good | – | – | –
CNC(=O)[C@@H](NC(=O)c1cn(C)nc1C(F)(F)F)[C@H](CN)c1ccccc1 (racemic) [Compound 4.5, N-{(1RS,2RS)-3-Amino-1-[(methylamino)carbonyl]-2-phenylpropyl}-1-methyl-3-(trifluoromethyl)-1H-pyrazole-4-carboxamide] | 91 | – | – | – | – | – | –
CNC(=O)[C@H](NC(=O)c1cn(C)nc1C(F)(F)F)[C@H](CNC(=O)C(F)(F)F)c1ccccc1 (racemic) [Compound 4.17, 1-Methyl-N-{(1RS,2SR)-1-[(methylamino)carbonyl]-2-phenyl-3-(2,2,2-trifluoroacetylamino)propyl}-3-(trifluoromethyl)-1H-pyrazole-4-carboxamide] | 233 | – | – | – | – | – | –
CNC(=O)[C@H](NC(=O)c1cn(C)nc1C(F)(F)F)[C@H](C[N+](=O)[O-])c1ccccc1 (racemic) [Compound 5.3, 1-Methyl-N-{(1RS,2SR)-1-[(methylamino)carbonyl]-3-nitro-2-phenylpropyl}-3-(trifluoromethyl)-1H-pyrazole-4-carboxamide] | 119 | – | – | – | very good | very good | very good
CNC(=O)C(NC(=O)c1cn(C)nc1C(F)(F)F)C(COC(C)=O)c1ccccc1 (single isomer, unassigned) [Compound 3.7, 3-Methylcarbamoyl-3-[(1-methyl-3-trifluoromethyl-1H-pyrazole-4-carbonyl)amino]-2-phenylpropyl Acetate] | – | very good | very good | very good | – | – | –
